Experimental data as given in article PMC8272148, “Antioxidant Serine-(NSAID) Hybrids with Anti-Inflammatory and Hypolipidemic Potency” (Molecules, 2021).
Marks after values point to notes of the source that are not given here.

Assays:
[1] = Interaction with the stable radical DPPH; details: DPPH 200 μM, after 30 min
Procedure: Compounds, dissolved in absolute ethanol, at concentrations of 25–200 μM, were added to an equal volume of an ethanolic solution of DPPH (final concentration 200 μM) at room temperature (22 ± 2 °C). Absorbance (517 nm) was recorded after 30 min [26]. For the calculation of percent interaction, the residual absorbance of DPPH Ai (at a fixed concentration) after its interaction with the examined compounds (at various concentrations) was compared with the control absorbance Ao, without the addition of compounds, following the equation: (1) Percent interaction=100−(Ai/Ao×100)

[2] = system: rat hepatic microsomal membrane lipid peroxidation; experiment: Inhibition of rat hepatic microsomal membrane lipid peroxidation (ferrous ascorbate induced, TBA reactive material); type: biochemical; details: after 45 min of incubation; for IC50: rat hepatic microsomal membrane
Procedure: The peroxidation of the heat-inactivated rat hepatic microsomal fraction was induced by ferrous ascorbate. The studied compounds, in dimethylsulfoxide, were added at concentrations of 1 μM–1 mM. Aliquots were taken from the incubation mixture (37 °C) for 45 min. Lipid peroxidation was assessed spectrophotometrically (535/600 nm) as a 2-thiobarbituric acid reactive material. The incubation mixture and solvents were found not to interfere with the assay.

soybean lipoxygenase 1-B = molecular target: T1, soybean lipoxygenase 1-B (Glycine max, UniProt P08170); experiment: In vitro inhibition of soybean lipoxygenase; type: biochemical; details: linoleic acid (100 μM) as substrate, after 7 min of incubation; for inhibition at 100 µM: 100 μM compound, read-out: Lipoxygenase percent inhibition at 100 μM
T1 sequence (P08170 1-839): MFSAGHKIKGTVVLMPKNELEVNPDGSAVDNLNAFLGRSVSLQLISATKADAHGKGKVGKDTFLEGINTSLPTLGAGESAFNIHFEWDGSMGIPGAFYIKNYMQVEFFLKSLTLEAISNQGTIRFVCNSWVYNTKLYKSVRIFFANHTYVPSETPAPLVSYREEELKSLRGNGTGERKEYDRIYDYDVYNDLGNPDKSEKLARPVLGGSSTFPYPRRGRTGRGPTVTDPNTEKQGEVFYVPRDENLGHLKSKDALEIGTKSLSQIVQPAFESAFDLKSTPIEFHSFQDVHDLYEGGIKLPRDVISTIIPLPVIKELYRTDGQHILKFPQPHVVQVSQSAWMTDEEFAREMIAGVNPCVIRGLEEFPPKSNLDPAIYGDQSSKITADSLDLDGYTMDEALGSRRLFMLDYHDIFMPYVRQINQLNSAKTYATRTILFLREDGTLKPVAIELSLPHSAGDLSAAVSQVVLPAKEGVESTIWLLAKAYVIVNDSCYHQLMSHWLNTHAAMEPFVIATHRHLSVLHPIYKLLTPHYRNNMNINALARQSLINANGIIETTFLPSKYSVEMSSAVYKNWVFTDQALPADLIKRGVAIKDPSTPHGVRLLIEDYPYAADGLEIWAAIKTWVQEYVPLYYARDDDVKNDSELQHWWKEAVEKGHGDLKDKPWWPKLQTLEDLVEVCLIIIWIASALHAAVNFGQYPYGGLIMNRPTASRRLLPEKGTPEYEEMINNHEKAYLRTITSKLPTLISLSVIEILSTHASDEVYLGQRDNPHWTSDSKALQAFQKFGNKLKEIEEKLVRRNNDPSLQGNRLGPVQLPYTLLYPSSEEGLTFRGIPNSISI
Procedure: The reaction mixture contained the test compounds, dissolved in absolute ethanol (0.1 mL) at various concentrations, or the solvent (control, 0.1 mL), soybean lipoxygenase dissolved in 0.9% NaCl solution (250 u/mL, 0.2 mL) and sodium linoleate (100 μM) in Tris–HCl buffer, pH 9.0 (2.7 mL). The reaction was followed for 7 min at 28 °C, recording the absorbance of a conjugated diene structure at 234 nm, due to the formation of 13-hydroperoxy-linoleic acid. […] For the estimation of the type of inhibition, the above experiments were repeated, using sodium linoleate at 1 mM, which is higher than the saturating substrate concentration.

[3] = system: Triton WR1339 (tyloxapol)-induced hyperlipidemia; experiment: Triton WR1339 (tyloxapol)-induced hyperlipidemia in rats; type: in vivo, Wistar rats; details: 150 μmol/kg i.p., rat plasma, 24 h, tyloxapol 200 mg/kg i.p.
Procedure: The examined compounds (0.15 mmol/kg) were administered i.p. one hour later. Blood was taken from the aorta after 24 h, for the determination of plasma total cholesterol, LDL cholesterol and triglyceride concentration, using commercial kits.

[4] = system: carrageenan-induced rat paw edema; experiment: Carrageenan-induced rat paw edema; type: in vivo, Wistar rats; details: ip, 0.15 mmol/kg i.p., 3.5 h after carrageenan, vs controls, read-out: % Edema Reduction
Procedure: An amount of 0.1 mL of an aqueous carrageenan solution (1% w/v) was injected into the hind paw of adult Wistar rats (6 rats were used for each compound). The tested compounds (in water with a few drops of Tween 80) were administered i.p. (0.15 mmol/kg) 5 min before the carrageenan administration. The produced edema, after 3.5 h, was estimated as paw weight increase.

| SMILES | Percent Interaction with DPPH ([1]; compound 25 μM) [%] | Percent Interaction with DPPH ([1]; compound 50 μM) [%] | Percent Interaction with DPPH ([1]; compound 100 μM) [%] | Percent Interaction with DPPH ([1]; compound 200 μM) | IC50 [2] [µM] | IC50 (soybean lipoxygenase 1-B) [µM] | % Reduction LDL-C (LDL cholesterol) [3] | % Reduction TC (total cholesterol) [3] | % Reduction TG (triglycerides) [3] | inhibition at 100 µM (soybean lipoxygenase 1-B) [%] | inhibition in vivo at 150 µmol/kg [4] [%] | Inhibition of Lipid Peroxidation, percent at 1 mM ([2]; 1 mM compound) [%/1 mM] | Inhibition of Lipid Peroxidation, percent at 500 μM ([2]; 500 μM compound) [%/500 μM] |
| --- | --- | --- | --- | --- | --- | --- | --- | --- | --- | --- | --- | --- | --- |
| Cc1c(C)c2c(c(C)c1O)CCC(C)(C(=O)O)O2 (stereo not drawn) [Trolox, 6-hydroxy-2,5,7,8-tetramethylchroman-2-carboxylic acid, reference compound] | 22.0 | 38.0 | 90.0 | 92.0% | 25 | > 300 |  |  |  |  |  |  |  |
| CC(C(=O)O)c1cccc(C(=O)c2ccccc2)c1 (stereo not drawn) [Ketoprofen, ketoprofen, reference compound] |  |  |  |  |  | 220 |  |  |  |  |  |  |  |
| CCOC(=O)C(CO)NC(=O)C1(C)CCc2c(C)c(O)c(C)c(C)c2O1 (stereo not drawn) [Compound 4, Ethyl 3-hydroxy-2-(6-hydroxy-2,5,7,8-tetramethylchroman-2-carboxamido)propanoate] | 24.5 | 53.3 | 88.2 | 92.4% | 7.3 |  | 60.2 * % | 46.2 ** % | 53.4 ** % | 15 | 37 |  |  |
| CCOC(=O)C(CO)NC(=O)c1cc(C(C)(C)C)c(O)c(C(C)(C)C)c1 (stereo not drawn) [Compound 5, Ethyl 2-(3,5-di-tert-butyl-4-hydroxybenzamido)-3-hydroxypropanoate] |  |  |  | lower than 10% | 163 | 200 | 66.0 ** % | 52.3 ** % | 62.0 ** % |  | 47 |  |  |
| CC(C)Cc1ccc(C(C)C(=O)O)cc1 (stereo not drawn) [Ibuprofen, ibuprofen, reference compound] |  |  |  |  |  |  |  |  |  |  | 36 |  |  |
| CC(C)(C)c1cc(/C=C/C(=O)NC(CO)C(=O)O)cc(C(C)(C)C)c1O (stereo not drawn) [Compound 3, (E)-2-(3-(3,5-di-tert-butyl-4-hydroxyphenyl)acrylamido)-3-hydroxypropanoic acid] | 12.9 | 17.4 | 35.9 | 82.3% | 80 |  |  |  |  | 20 | 27 |  |  |
| CCOC(=O)C(CO)NC(=O)/C=C/c1cc(C(C)(C)C)c(O)c(C(C)(C)C)c1 (stereo not drawn) [Compound 6, (E)-ethyl 2-(3-(3,5-di-tert-butyl-4-hydroxyphenyl)acrylamido)-3-hydroxypropanoate] | 17.9 | 21.2 | 48.6 | 88.7% | 22 | 156 |  |  |  |  | 44 |  |  |
| CC(C)(C)c1cc(C(=O)NC(CO)C(=O)O)cc(C(C)(C)C)c1O (stereo not drawn) [Compound 2, 2-(3,5-Di-tert-butyl-4-hydroxybenzamido)-3-hydroxypropanoic acid] |  |  |  | lower than 10% |  |  |  |  |  | 15 | 44 | 40 |  |
| CCOC(=O)C(COC(=O)C(C)c1cccc(C(=O)c2ccccc2)c1)NC(=O)C1(C)CCc2c(C)c(O)c(C)c(C)c2O1 (stereo not drawn) [Compound 10, Ethyl 3-((2-(3-benzoylphenyl)propanoyl)oxy)-2-(6-hydroxy-2,5,7,8-tetramethylchroman-2-carboxamido)propanoate] | 12.4 | 30.1 | 64.6 | 87.0% | 2.8 |  |  |  |  | 23 | 42 |  |  |
| CCOC(=O)C(COC(=O)C(C)c1ccc(CC(C)C)cc1)NC(=O)C1(C)CCc2c(C)c(O)c(C)c(C)c2O1 (stereo not drawn) [Compound 7, Ethyl 2-(6-hydroxy-2,5,7,8-tetramethylchroman-2-carboxamido)-3-((2-(4-isobutylphenyl)propanoyl)oxy)propanoate] | 22.6 | 54.2 | 89.0 | 91.6% | 3.4 |  |  |  |  | < 15 | 45 |  |  |
| CCOC(=O)C(COC(=O)C(C)c1ccc(CC(C)C)cc1)NC(=O)c1cc(C(C)(C)C)c(O)c(C(C)(C)C)c1 (stereo not drawn) [Compound 8, Ehyl 2-(3,5-di-tert-butyl-4-hydroxybenzamido)-3-((2-(4-isobutylphenyl)propanoyl)oxy)propanoate] |  |  | 4.0 | 18.7% |  | 13 |  |  |  |  | 48 |  | 30 |
| Cc1c(C)c2c(c(C)c1O)CCC(C)(C(=O)NC(CO)C(=O)O)O2 (stereo not drawn) [Compound 1, 3-Hydroxy-2-(6-hydroxy-2,5,7,8-tetramethylchroman-2-carboxamido)propanoic acid] | 19.6 | 48.0 | 87.0 | 90.4% | 150 |  |  |  |  | 30 | 43 |  |  |
